# Measured values taken from US20070111216A1 (priority 2004, published 2007).
# What was measured:
# Type in all cases: biochemical
# [1] = target: T1, E. coli RNA Polymerase Core Enzyme (Escherichia coli, UniProt P0A8T7+P0A8V2); assay: Rolling circle transcription on circular 45mer ssDNA monitored in real time (SYBR Gold) and by gel electrophoresis; conditions: 20 μg/ml α-amanitin, 10 min preincubation at 37° C., 0.5 mM each NTP, about 1.5 hours (FIG. 4)
# T1 construct: purchased EPICENTRE
# Description: A single-stranded circularized 45mer DNA molecule having the same sequence as the circular 45mer used in Example 1 (Sequence I.D. No. 1) was obtained.
# A reaction mixture was prepared containing 0.5 units of E. coli RNA Polymerase Core Enzyme, and a reaction buffer. The reaction mixture was incubated in the presence of 1 μM rifampicin, 20 U TAGETIN (Epicentre Biotechnologies), or 20 μg/ml α-amanitin for 10 min at 37° C. Subsequently, 0.8 pmole of the circularized 45mer DNA oligomer were added to the reaction mixture followed by incubation for 5 min at 37° C. Then SYBR Gold (Molecular Probes), which had been diluted 1:20,000, was added. Subsequently, ATP, CTP, GTP and UTP were added such that the concentration of each NTP was 0.5 mM in the final reaction mixture. Fluorescence was measured for about 1.5 hours in an iCycler iQ real-time PCR detection system (Bio-Rad Laboratories) using 490 nm excitation and 530 nm emission wavelengths. Afterwards, the reaction products were analyzed by gel electrophoresis.
# [2] = target: T2, E. coli RNA polymerase Holoenzyme (Escherichia coli, UniProt P0A8T7+P0A8V2); assay: Rolling circle transcription on circular 38mer ssDNA, products visualized by agarose gel electrophoresis; conditions: 37° C. for 2 hours, 0.5 mM each NTP, concentration of inhibitor not printed (FIG. 2)
# T2 construct: purchased EPICENTRE
# Description: (§1) A single-stranded circularized 38mer DNA molecule having the same sequence as the circular 38mer used in Example 2 (Sequence I.D. No. 2) was obtained.
# (§2) A reaction mixture was prepared comprising 5 pmoles of the circularized 38mer DNA molecule, 1 unit of E. coli RNA Polymerase Holoenzyme (EPICENTRE) or of soy germ RNA polymerase II, 0.5 mM of each NTP and a reaction buffer. The reaction mixture was incubated at 37° C. for 2 hours in the presence or absence of rifampicin or α-amanitin. The reaction products were visualized by agarose gel electrophoresis.
# [3] = tested on: soy germ RNA polymerase II; assay: as above; conditions: 37° C. for 2 hours, 0.5 mM each NTP, concentration of inhibitor not printed (FIG. 2)
# Description: as §1, §2
# T1 sequence (P0A8V2 whole entry): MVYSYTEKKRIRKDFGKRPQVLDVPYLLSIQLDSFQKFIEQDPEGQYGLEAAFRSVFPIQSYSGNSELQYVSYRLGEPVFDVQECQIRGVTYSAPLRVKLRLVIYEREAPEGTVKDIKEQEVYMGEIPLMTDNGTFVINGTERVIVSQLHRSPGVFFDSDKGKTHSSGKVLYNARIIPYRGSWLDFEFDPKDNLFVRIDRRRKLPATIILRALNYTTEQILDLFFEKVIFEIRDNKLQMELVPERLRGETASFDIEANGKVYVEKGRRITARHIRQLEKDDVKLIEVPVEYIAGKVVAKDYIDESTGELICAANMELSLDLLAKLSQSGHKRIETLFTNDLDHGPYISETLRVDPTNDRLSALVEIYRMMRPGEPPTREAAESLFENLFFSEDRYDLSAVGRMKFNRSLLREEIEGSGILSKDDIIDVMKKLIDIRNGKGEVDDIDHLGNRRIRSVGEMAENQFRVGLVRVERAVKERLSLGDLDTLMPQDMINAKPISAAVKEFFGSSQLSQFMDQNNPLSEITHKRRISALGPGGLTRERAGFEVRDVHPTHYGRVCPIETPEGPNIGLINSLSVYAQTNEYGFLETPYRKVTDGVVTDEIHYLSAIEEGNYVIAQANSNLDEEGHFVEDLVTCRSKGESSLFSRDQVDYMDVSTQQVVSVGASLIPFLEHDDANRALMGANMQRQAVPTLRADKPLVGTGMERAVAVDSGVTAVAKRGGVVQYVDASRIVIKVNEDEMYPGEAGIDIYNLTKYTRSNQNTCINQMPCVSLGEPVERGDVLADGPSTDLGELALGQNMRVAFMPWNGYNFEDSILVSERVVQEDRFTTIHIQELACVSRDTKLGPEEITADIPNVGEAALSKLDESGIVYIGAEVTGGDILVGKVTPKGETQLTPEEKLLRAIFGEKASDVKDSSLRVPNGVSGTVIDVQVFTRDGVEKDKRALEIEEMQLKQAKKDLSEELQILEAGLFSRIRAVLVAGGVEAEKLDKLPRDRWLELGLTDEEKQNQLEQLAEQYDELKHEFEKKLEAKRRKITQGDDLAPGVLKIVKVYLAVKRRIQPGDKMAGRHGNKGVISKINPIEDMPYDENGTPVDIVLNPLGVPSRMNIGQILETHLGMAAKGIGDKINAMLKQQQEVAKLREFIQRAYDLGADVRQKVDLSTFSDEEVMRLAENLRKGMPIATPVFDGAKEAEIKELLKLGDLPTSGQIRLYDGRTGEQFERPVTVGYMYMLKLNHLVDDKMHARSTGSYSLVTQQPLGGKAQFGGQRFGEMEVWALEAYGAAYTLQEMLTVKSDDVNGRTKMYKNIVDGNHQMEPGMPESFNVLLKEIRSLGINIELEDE
# T1 sequence (P0A8T7 whole entry): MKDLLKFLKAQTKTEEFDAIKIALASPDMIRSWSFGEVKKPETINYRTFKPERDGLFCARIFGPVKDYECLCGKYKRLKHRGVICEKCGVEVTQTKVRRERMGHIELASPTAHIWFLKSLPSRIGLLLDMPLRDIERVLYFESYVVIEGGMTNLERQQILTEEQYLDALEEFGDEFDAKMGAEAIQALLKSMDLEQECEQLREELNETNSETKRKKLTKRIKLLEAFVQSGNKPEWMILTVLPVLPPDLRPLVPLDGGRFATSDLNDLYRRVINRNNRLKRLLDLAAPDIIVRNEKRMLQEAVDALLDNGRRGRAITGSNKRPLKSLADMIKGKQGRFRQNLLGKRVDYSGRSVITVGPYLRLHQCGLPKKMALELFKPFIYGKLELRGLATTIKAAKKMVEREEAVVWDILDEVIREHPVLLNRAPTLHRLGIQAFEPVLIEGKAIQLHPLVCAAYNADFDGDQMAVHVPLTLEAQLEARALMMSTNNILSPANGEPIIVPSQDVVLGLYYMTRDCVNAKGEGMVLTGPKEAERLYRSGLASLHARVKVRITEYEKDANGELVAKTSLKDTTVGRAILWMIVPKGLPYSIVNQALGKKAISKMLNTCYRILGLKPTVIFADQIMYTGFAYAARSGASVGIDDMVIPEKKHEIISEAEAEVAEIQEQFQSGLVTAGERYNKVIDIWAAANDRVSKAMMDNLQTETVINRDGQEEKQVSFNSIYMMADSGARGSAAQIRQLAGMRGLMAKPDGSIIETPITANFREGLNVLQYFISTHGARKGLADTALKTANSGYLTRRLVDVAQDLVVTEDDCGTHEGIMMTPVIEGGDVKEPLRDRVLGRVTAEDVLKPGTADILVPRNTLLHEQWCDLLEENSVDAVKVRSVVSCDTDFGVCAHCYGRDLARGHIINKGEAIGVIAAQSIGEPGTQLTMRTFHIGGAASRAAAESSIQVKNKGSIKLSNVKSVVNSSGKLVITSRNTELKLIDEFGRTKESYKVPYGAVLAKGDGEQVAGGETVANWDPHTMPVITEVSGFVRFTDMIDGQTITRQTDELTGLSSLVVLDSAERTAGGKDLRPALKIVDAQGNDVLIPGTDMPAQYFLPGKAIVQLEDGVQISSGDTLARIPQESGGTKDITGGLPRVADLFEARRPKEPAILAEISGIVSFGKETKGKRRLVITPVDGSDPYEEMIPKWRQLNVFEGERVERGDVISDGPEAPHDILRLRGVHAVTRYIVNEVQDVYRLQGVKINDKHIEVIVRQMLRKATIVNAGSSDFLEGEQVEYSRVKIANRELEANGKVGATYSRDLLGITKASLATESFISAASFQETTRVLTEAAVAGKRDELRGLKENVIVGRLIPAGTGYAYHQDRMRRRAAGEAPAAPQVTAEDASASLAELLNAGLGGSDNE
# T1 sequence (P0A7Z4 whole entry partner): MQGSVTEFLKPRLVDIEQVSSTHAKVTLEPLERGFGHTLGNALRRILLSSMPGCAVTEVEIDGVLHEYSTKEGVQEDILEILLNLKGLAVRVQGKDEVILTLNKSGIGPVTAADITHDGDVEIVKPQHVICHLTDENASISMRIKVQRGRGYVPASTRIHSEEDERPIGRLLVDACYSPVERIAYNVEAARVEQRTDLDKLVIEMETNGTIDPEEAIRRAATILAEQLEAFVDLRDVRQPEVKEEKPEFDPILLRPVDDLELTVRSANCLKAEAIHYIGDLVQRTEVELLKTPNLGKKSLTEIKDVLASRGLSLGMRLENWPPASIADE
# T1 sequence (P0A800 2-91 partner limits assumed): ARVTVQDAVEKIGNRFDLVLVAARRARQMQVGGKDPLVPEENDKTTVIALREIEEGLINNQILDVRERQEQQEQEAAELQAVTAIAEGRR
compound,measurement,setting,value
CC[C@H](C)[C@@H]1NC(=O)CNC(=O)[C@@H]2Cc3c([nH]c4cc(O)ccc34)[S+]([O-])C[C@@H](NC(=O)CNC1=O)C(=O)N[C@@H](CC(N)=O)C(=O)N1C[C@H](O)C[C@H]1C(=O)N[C@@H]([C@@H](C)[C@@H](O)CO)C(=O)N2 (stereo in doubt) [α-amanitin],RNA synthesis in the presence of inhibitor,[1],RNA was synthesized
same,Inhibition of RNA polymerase activity,[2],no inhibition
same,Inhibition of RNA polymerase activity,[3],Inhibitory effects
